Measurements published in patent US6649364B1, “Anti-apoptotic compositions and methods using same” (The Regents of the University of California, priority 1995, dated 2003).
Read-outs that look alike come from different tables or passages of the source. Where a SMILES comes first, the peptide text is derived from it. [ ]: non-standard residue; d: D form. The star is where a group is joined. Sta = CC(C)C[C@H](N)[C@@H](O)CC(=O)O; Isovaleryl = CC(C)CC(=O)*

Target: T1, human recombinant ICE (Homo sapiens, UniProt P29466)
T1 construct: highly purified human recombinant ICE (p20/p10) (Merck, Wayne, N.J.); purchased Merck, Wayne, N.J
T1 sequence (P29466 120-297 limits assumed): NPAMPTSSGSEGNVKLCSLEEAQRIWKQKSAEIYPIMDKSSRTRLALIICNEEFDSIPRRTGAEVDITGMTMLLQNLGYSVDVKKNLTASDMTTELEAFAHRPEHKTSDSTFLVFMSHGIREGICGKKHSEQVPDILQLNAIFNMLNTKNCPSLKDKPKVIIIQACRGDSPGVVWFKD
T1 sequence (P29466 317-404 limits assumed): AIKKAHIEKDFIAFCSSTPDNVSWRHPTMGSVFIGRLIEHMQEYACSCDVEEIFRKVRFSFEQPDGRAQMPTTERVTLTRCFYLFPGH
Assay: ICE cleavage of actin in PC12 cell extracts, with protease inhibitors (SDS-PAGE, immunoblot)
Type: biochemical
Protocol: Cells were washed with ice-cold PBS twice and were extracted with Triton X-100® detergent (1%) in Hepes buffer (10 mM, pH=7.5). Supernatants were treated with ICE as follows: 50 μg of cellular protein extracted from semi-confluent cells grown in serum-containing media was incubated with 50 ng of highly purified human recombinant ICE (p20/p10) (Merck, Wayne, N.J.) at 37° C. for 2 hours in the presence of 10 mM dithiothreitol (DTT).
In order to determine whether any of the cellular proteins of relatively high abundance serve as ICE substrates, extracts prepared from PC12 pheochromocytoma cells (29), CSM14.1 cells (conditionally immortalized mesencephalic neuronal cells) (30, 31), and Rat-1 cells (25) were treated with highly purified human recombinant ICE under various conditions. The cleavage products were then analyzed by SDS-polyacrylamide gel electrophoresis.
Control was incubated in the absence of ICE.

[1] = cell extracts treated with ICE, 37° C., 2 hours

CC(C)C[C@H](NC(=O)[C@H]1O[C@@H]1C(=O)O)C(=O)NCCCCN=C(N)N [E-64]
inhibition of the generation of actin fragments by ICE [1]: not

O=C(O)CI [iodoacetate]
inhibition of the generation of actin fragments by ICE: completely inhibited

CC(=O)N[C@@H](CC(C)C)C(=O)N[C@@H](CC(C)C)C(=O)N[C@H](C=O)CCCNC(=N)N [leupeptin]
inhibition of the generation of actin fragments by ICE [1]: not

CC(C)CC(=O)N[C@H](C(=O)N[C@H](C(=O)N[C@@H](CC(C)C)[C@@H](O)CC(=O)N[C@@H](C)C(=O)N[C@@H](CC(C)C)[C@@H](O)CC(=O)O)C(C)C)C(C)C [pepstain] (Isovaleryl-VV[Sta]A[Sta]-OH)
inhibition of the generation of actin fragments by ICE [1]: not

O=S(=O)(F)Cc1ccccc1 [phenylmethylsulfonyl fluoride]
inhibition of the generation of actin fragments by ICE [1]: not

Ac-Tyr-Val-Ala-Asp-CHO
inhibition of the generation of actin fragments by ICE [1]: completely inhibited

human α2-macroglobulin: granzyme B inhibitor, shown not to inhibit ICE
inhibition of the generation of actin fragments by ICE [1]: not
